Like-named read-outs stand apart in the source and are kept apart here. Blank lines part the entries; values can stand above or below the molecule they belong to. Where a SMILES comes first, the peptide text is derived from it. [ ]: non-standard residue; d: D form. The star is where a group is joined. Sta = CC(C)C[C@H](N)[C@@H](O)CC(=O)O; Isovaleryl = CC(C)CC(=O)*
Tests used:
[1] = system: amidase activity which catalyzes both the hydrolysis and synthesis of arachidonylethanolamide (anandamide); details: cited from earlier work
neuroblastoma cells = details: anandamide incubated with neuroblastoma cells; cited from earlier work
rats = assay: effect on spontaneous behavior of rats after ip injection (induction of sleep); type: in vivo, rat; details: for sleep-inducing pharmacological effect compared with cis-9,10-octadecenoamide: rats, ip
Description: Synthetic cis-9,10-octadecenoamide was injected (ip) into rats in order to test its effect on spontaneous behavior at different doses: 1 (n=2), 2 (n=2), 5 (n=7), 10 (n=10), 20 (n=2), and 50 (n=2) mg, where n = number of rats tested. […] However, at a threshold of 5 mg and above there was a marked effect consisting of an induction of long-lasting motor quiescence associated with eyes closed, sedated behavior characteristic of normal sleep. Also as with normal sleep, the rats still responded to auditory stimuli with orienting reflex and sustained attention toward the source of stimulation. In addition, motor behavior was impaired. The latency to behavioral sedation following administration was about 4 minutes and subjects were normally active again after 1 hour (5 mg), 2 hour (10 mg), or 2.5 hour (20 mg and 50 mg).
We have compared cis-9,10-octadecenoamide to vehicle and the synthetic analogs listed in FIG. 1 to estimate the structural specificity of its sleep-inducing potential. […] More particularly, male Sprague-Dawley rats (300 g at the time of surgery) were implanted under halothane anesthesia (2-3%) with a standard set of electrodes for sleep recordings. This included two screw electrodes placed in the parietal bone over the hippocampus to record the subjects electroencephalogram (EEG) and two wire electrodes inserted in the neck musculature to record postural tone through electromyographic activity (EMG). Rats were housed individually with at libitum access to food and water. The dark-light cycle was controlled (12:12, lights on a 10:00 p.m.). One week after the surgery, rats were habituated to the recording conditions for at least three days. Upon the completion of the habituation period, rats received 2 milliliter (ip) of either: vehicle (5% ethanol/saline solution), cis-9,10-octadecenoamide (10 mg), or oleic acid (10 mg). […] Sleep recordings were visually scored and four stages were determined: wakefulness, slow-wave-sleep 1 (SWS1), slow-wave-sleep 2 (SWS2), and rapid eye movement (REM) sleep.

[2] = target: T1, recombinant expressed rat FAAH (Rattus norvegicus, UniProt P97612); assay: FAAH hydrolysis assays with 14C-labeled fatty acid amide substrates (TLC, scintillation counting); type: biochemical; details: for Rate of Hydrolysis: 35 μg transfected COS-7 cell protein, 5 minutes, 37° C.
T1 construct: expressed in transfected cells; host or cells: COS-7 cells, transient, pcDNA3; dounce-homogenised cell extract
T1 sequence (P97612 1-579): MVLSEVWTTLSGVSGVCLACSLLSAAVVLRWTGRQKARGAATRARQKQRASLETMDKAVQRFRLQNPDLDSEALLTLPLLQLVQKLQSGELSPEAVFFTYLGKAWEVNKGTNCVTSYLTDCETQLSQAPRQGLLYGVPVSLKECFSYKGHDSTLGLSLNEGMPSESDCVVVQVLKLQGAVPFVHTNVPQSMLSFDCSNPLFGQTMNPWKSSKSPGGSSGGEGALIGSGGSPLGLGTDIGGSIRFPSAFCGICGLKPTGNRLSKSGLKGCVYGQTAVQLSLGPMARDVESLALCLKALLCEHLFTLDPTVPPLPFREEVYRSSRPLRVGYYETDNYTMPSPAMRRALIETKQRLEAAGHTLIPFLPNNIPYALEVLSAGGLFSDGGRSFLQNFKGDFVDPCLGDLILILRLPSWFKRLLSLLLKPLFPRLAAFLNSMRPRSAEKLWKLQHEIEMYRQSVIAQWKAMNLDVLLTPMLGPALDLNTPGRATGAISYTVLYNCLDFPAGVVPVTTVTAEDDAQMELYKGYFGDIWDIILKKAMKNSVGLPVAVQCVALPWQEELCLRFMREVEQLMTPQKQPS
Description: Therefore, COS-7 cells transfected with the rat FAAH cDNA were assayed for anandamide hydrolase activity. To assess the enzymatic activity of the expressed recombinant fatty acid amide hydrolases of this invention on labeled anandamide, the following enzymatic assay was performed. ^14C-anandamide was synthesized as follows: 12.5 μCi (specific activity of 50 μCi/μM) of ^14C arachidonic acid (Moravek Biochemicals) was dissolved in 100 μl CH2Cl2, cooled to 0° C., and treated with excess oxalyl chloride. The reaction mixture was stirred at 25° C. for 6 hours, after which time the solvent was evaporated. The remaining residue was cooled to 0° C., treated with a large excess of ethanolamine, and stirred at 25° C. for 15 minutes. The reaction mixture was then partitioned between ethyl acetate and 2 M HCl, and the organic layer was washed with water and then evaporated to dryness. The resulting ^14C-anandamide was diluted with unlabeled anandamide to a final specific activity of 5 μCi/μM in ethanol. Approximately 1 μCi of ^14C-anandamide and 20 μl of dounce homogenized COS-7 cell extract were used for each anandamide hydrolase assay as detailed above for the oleamide hydrolase assays. Briefly, FAAH hydrolysis assays were conducted in triplicate with 100 μM substrate, 35 μg of rat transfected COS-7 cell protein for 5 minutes at 37° C. (except in the case of stearic amide, where due to low solubility, 20 μM substrate comparison to oleamide were conducted). Products were separated on TLC as described previously, scraped into scintillation fluid, and radioactivity was quantitated by scintillation counting. Substrate hydrolysis in the presence of equal amounts of untransfected COS-7 cell protein extract served as background control in all cases and was substracted from FAAH hydrolysis rates to give the data as presented below.
To further assess the substrate specificity spectrum of enyzmatic hydolytic activity of the recombinant expressed proteins of this invention, other ^14C-labeled fatty acid amides were synthesized as described in Section B6 and above for ^14C-oleamide, with the exception of anandamide as described.
Where indicated in the table the anandamide and oleamide hydrolysis rates are considered to be 100% of FAAH activity to which other fatty acid amide hydrolysis rates are compared.

recombinant rat FAAH = target: T2, recombinant rat FAAH (Rattus norvegicus, UniProt P97612); assay: oleamide hydrolase activity of rat FAAH-transfected COS-7 cell extract and its inhibition (TLC); type: biochemical; details: versus untransfected and control transfected cells
T2 construct: expressed in transfected cells; host or cells: COS-7 cells, transient, pcDNA3; dounce-homogenised cell extract
T2 sequence (P97612 1-579): T1 sequence (P97612 1-579)
Description: The following thin layer chromatography (TLC) protocol is used for assaying cis-9,10 octadecenoamide hydrolysis activity, also referred to as fatty-acid amide hydrolase activity. Oleamide is first labeled with ^14C. To accomplish this, ^14C-Oleic acid (1-10 μM, Moravek Biochemicals, 5-50 μCi/μM) in CH2CL2 (200 μL, 0.005-0.05 M) at 0° C. was treated with excess oxalyl chloride and the reaction mixture was warmed to 25° C. for 6 hours. The reaction mixture was then concentrated under a constant stream of gaseous nitrogen and the remaining residue was cooled to 0° C. and treated with excess saturated aqueous ammonium hydroxide. After 5 minutes, the reaction mixture was partitioned between Et)Ac (1.5 mL) and 10% HCl (1.0 mL). The organic layer was then washed with water (1.0 mL) and concentrated under a constant stream of gaseous nitrogen to provide ^14C-oleamide in quantitative yield as judged by TLC (60% EtOAc in hexanes; oleamide Rf−0.2; oleic acid Rf−0.8). […]
While untransfected COS-7 cells contained negligible amounts of oleamide hydrolase activity, COS-7 cells transfected with the rat FAAH cDNA expressed high levels of oleamide hydrolase activity (FIG. 15A). The assay was performed as described in Section B where by TLC the conversion of oleamide to oleic acid was assessed. […]

[3] = target: T3, FAAH activity of a rat brain membrane fraction (Rattus norvegicus, UniProt P97612); type: biochemical; details: for inhibition of cis-9,10-octadecenoamide hydrolysis (lipid amidase) activity: 1 mM
T3 construct: Cis-9,10-octadecenoamide with rat brain membrane fraction +1 mM phenylmethylsulfonyl fluoride (PMSF); from tissue; host or cells: rat brain membrane fraction
T3 sequence (P97612 1-579): T1 sequence (P97612 1-579)
Description: In each case the enzymic reaction is performed is a separate reaction vessel and the product is spotted onto a TLC plate.

Molecule: CC(=O)N[C@@H](CC(C)C)C(=O)N[C@@H](CC(C)C)C(=O)N[C@H](C=O)CCCNC(=N)N [leupeptin]
effect of other inhibitors on the amidase activity [1]: little or no effect

Molecule: arachidonyl trifluoromethyl ketone
increase of anandamide levels in the presence of the inhibitor (neuroblastoma cells): 5 fold

Molecule: CCCCCC/C=C\CCCCCCCCCC(N)=O [Compound 4, Cis-11,12-octadecenoamide]
sleep-inducing pharmacological effect compared with cis-9,10-octadecenoamide (rats): substantial reduction in both the degree and duration of the pharmacological effects

Molecule: aprotinin
effect of other inhibitors on the amidase activity [1]: little or no effect

Molecule: CCCCCCCC/C=C/CCCCCCCC(N)=O [Trans-9,10-octadecenoamide]
duration of the biological (sleep-inducing) effect (rats; 10 mg per rat): one hour | sleep-inducing pharmacological effect compared with cis-9,10-octadecenoamide (rats): much less potent

% of FAAH activity (anandamide hydrolysis rate = 100%) ([2]; 100 μM substrate): 9.9% | Rate of Hydrolysis ([2]; 100 μM substrate): 33 ± 2 nmol/min/mg
Molecule: CCCCCCCCCCCCCCCC(N)=O [Palmitic Amide, palmitic amide]

Molecule: CC(C)C[C@H](NC(=O)[C@@H](NC(=O)N[C@@H](Cc1ccccc1)C(=O)O)[C@@H]1CCN=C(N)N1)C(=O)N[C@H](C=O)Cc1ccccc1 [chymostatin]
effect of other inhibitors on the amidase activity [1]: little or no effect

Molecule: CC(C)CC(=O)N[C@H](C(=O)N[C@H](C(=O)N[C@@H](CC(C)C)[C@@H](O)CC(=O)N[C@@H](C)C(=O)N[C@@H](CC(C)C)[C@@H](O)CC(=O)O)C(C)C)C(C)C [pepstatin] (Isovaleryl-VV[Sta]A[Sta]-OH)
effect of other inhibitors on the amidase activity [1]: little or no effect

Molecule: CCCCC/C=C\C/C=C\C/C=C\C/C=C\CCCC(=O)NCCO [Anandamide, arachidonylethanolamide]
conversion of labeled substrate by rat FAAH-transfected COS-7 cells (qualitative, TLC) (recombinant rat FAAH): high levels of anandamide hydrolase activity | % of FAAH activity (anandamide hydrolysis rate = 100%) ([2]; 100 μM substrate): 100% | Rate of Hydrolysis ([2]; 100 μM substrate): 333 ± 30 nmol/min/mg

% of FAAH activity (oleamide hydrolysis rate = 100%) ([2]; 20 μM substrate): 5.8% | Rate of Hydrolysis ([2]; 20 μM substrate): 2.3 ± 1 nmol/min/mg
Molecule: CCCCCCCCCCCCCCCCCC(N)=O [Stearic Amide, stearic amide]

Molecule: CCCCCCCC/C=C\CCCCCCCCCCCC(N)=O [Compound 6, Erucamide]
sleep-inducing pharmacological effect compared with cis-9,10-octadecenoamide (rats): substantial reduction in both the degree and duration of the pharmacological effects

Molecule: [Cl][Hg][Cl] [HgCl2, mercuric chloride]
inhibition of lipid amidase activity ([3]; 50 mM): inhibited

% of FAAH activity (anandamide hydrolysis rate = 100%) ([2]; 100 μM substrate): 24.3% | Rate of Hydrolysis ([2]; 100 μM substrate): 81 ± 7 nmol/min/mg
Molecule: CCCCCCCCCCCCCC(N)=O [Myristic Amide, myristic amide]

Molecule: CCCCCCCC/C=C\CCCCCCCC(=O)O [oleic acid, Oleic Acid]
sleep-inducing pharmacological effect compared with cis-9,10-octadecenoamide (rats): nor oleic acid (5) showed any overt behavioral effect

Molecule: N=C(N)c1ccccc1 [benzamidine]
effect of other inhibitors on the amidase activity [1]: little or no effect

Molecule: CCCCCCCCC/C=C\CCCCCCC(N)=O [Compound 3, Cis-8,9-octadecenoamide]
sleep-inducing pharmacological effect compared with cis-9,10-octadecenoamide (rats): substantial reduction in both the degree and duration of the pharmacological effects

Molecule: O=S(=O)(F)Cc1ccccc1 [PMSF, phenylmethylsulfonyl fluoride]
inhibition of the amidase activity ([1]; 1.5 mM concentration): completely inhibited | inhibition of cis-9,10-octadecenoamide hydrolysis (lipid amidase) activity [3]: inhibited | inhibition of cis-9,10-octadecenoamide hydrolysis (lipid amidase) activity ([3]; listed as phenylmethylsulfonyl fluoride): completely inhibited

From US6699682B2, “Assay for inhibitors of fatty-acid amide hydrolase” (The Scripps Research Institute, priority 1995, dated 2004)
